Source: US20100190711A1, “BIG GASTRIN I AS A THERAPEUTIC AGENT” (priority 2007, published 2010)
Where a SMILES comes first, the peptide text is derived from it. [ ]: non-standard residue; d: D form. pGlu = O=C1CC[C@@H](C(=O)O)N1

How the values were obtained:
Pseudomonas aeruginosa = format: cell-based; conditions: 5 micrograms per ml
Streptococcus pneumoniae = format: cell-based; conditions: 5 micrograms per ml
MRSA = conditions: 5 micrograms per ml
in vitro = conditions: human, HepG2-2.2.15 cells
[1] = Cytotoxicity (MTS cell viability) in the HIV-1 assay; conditions: human, CEM-SS cells (uninfected, cells plus peptide only)
[2] = Cytotoxicity (CellTiter 96 cell viability) in the HCMV assay; conditions: human, MRC-5 cells (embryonal lung fibroblasts)
HIV-1IIIB = experiment: HIV-1 antiviral assay (CPE reduction, MTS) in CEM-SS cells; format: cell-based; conditions: peptide 10 micrograms per ml; 6 days post-infection
CEM-SS cells = experiment: Cytotoxicity (MTS cell viability) in the HIV-1 assay; conditions: CEM-SS cells, MTS; peptide 10 micrograms per ml
MRC-5 cells = experiment: Cytotoxicity (CellTiter 96 cell viability) in the HCMV assay; conditions: MRC-5 cells, 6 days incubation

With `CSCC[C@H](NC(=O)[C@H](Cc1c[nH]c2ccccc12)NC(=O)CNC(=O)[C@H](Cc1ccc(O)cc1)NC(=O)[C@H](C)NC(=O)[C@H](CCC(=O)O)NC(=O)[C@H](CCC(=O)O)NC(=O)[C@H](CCC(=O)O)NC(=O)[C@H](CCC(=O)O)NC(=O)[C@H](CCC(=O)O)NC(=O)[C@H](CC(C)C)NC(=O)[C@H](Cc1c[nH]c2ccccc12)NC(=O)[C@@H]1CCCN1C(=O)CNC(=O)[C@H](CCC(N)=O)NC(=O)[C@H](CCCCN)NC(=O)[C@H](CCCCN)NC(=O)[C@H](CO)NC(=O)[C@@H]1CCCN1C(=O)[C@H](CC(=O)O)NC(=O)[C@H](C)NC(=O)[C@@H](NC(=O)[C@H](CC(C)C)NC(=O)[C@H](Cc1c[nH]cn1)NC(=O)[C@@H]1CCCN1C(=O)[C@@H]1CCCN1C(=O)CNC(=O)[C@H](CCC(N)=O)NC(=O)[C@@H]1CCCN1C(=O)CNC(=O)[C@H](CC(C)C)NC(=O)[C@@H]1CCC(=O)N1)C(C)C)C(=O)N[C@@H](CC(=O)O)C(=O)N[C@@H](Cc1ccccc1)C(N)=O` [Big Gastrin I] ([pGlu]LGPQGPPHLVADPSKKQGPWLEEEEEAYGWMDF-NH2) the “% inhibition” value (Pseudomonas aeruginosa) was 0.0%, the “% inhibition” value (Streptococcus pneumoniae) was 0.0% and the “% inhibition” value (MRSA) was 0.0%. For the same compound, the viability at 144 h, 10 micrograms per ml (in vitro) was 88.7%, the viability at 10 micrograms per ml [1] was 100% and the viability at 144 h [2] was 100%.
For `Cc1cn([C@H]2C[C@H](N=[N+]=[N-])[C@@H](CO)O2)c(=O)[nH]c1=O` [AZT, reference compound], the “% CPE reduction in HIV-1 infected CEM-SS cells” value (HIV-1IIIB) was 99% and the “% Cell viability” value (CEM-SS cells) was 97%.
For `Nc1nc(O)c2ncn(COC(CO)CO)c2n1` [Ganciclovir, reference compound], the “% Cell viability” value (MRC-5 cells) was 100%.
In the case of `CC(C)(C)NC(=O)[C@@H]1CN(Cc2cccnc2)CCN1C[C@@H](O)C[C@@H](Cc1ccccc1)C(=O)N[C@H]1c2ccccc2C[C@H]1O` [Indinavir, indinavir], the “% CPE reduction in HIV-1 infected CEM-SS cells” value (HIV-1IIIB) is reported as 100%.
